Source: patent US7285682B2, “Terphenyl guanidines as β-secretase inhibitors” (Wyeth, priority 2005, dated 2007)

Assays:
human BACE1 = human BACE1 (Homo sapiens, UniProt P56817); experiment: Fluorescent kinetic assay (BACE-1, FRET peptide substrate WABC-6); type: biochemical; conditions: 10 nM enzyme, 25 μM substrate WABC-6, 50 mM Na-Acetate pH 4.5, room temperature
Experimental: Evaluation of BACE-1 Binding Affinity of Test Compounds
1. Fluorescent Kinetic Assays • Final Assay Conditions: 10 nM human BACE1 (or 10 nM Murine BACE1, 1.5 nM human BACE2), 25 μM substrate (WABC-6, MW 1549.6, from AnaSpec), Buffer: 50 mM Na-Acetate, pH 4.5, 0.05% CHAPS, 25% PBS, room temperature. Na-Acetate was from Aldrich, Cat.# 24,124-5, CHAPS was from Research Organics, Cat. # 1304C 1×, PBS was from Mediatech (Cellgro), Cat# 21-031-CV, peptide substrate AbzSEVNLDAEFRDpa was from AnaSpec, Peptide Name: WABC-6 • Determination of stock substrate (AbzSEVNLDAEFRDpa) concentration: ˜25 mM stock solution is made in DMSO using the peptide weight and MW, and diluted to ˜25 μM (1:1000) in 1×PBS. Concentration is determined by absorbance at 354 nm using an extinction coefficient ε of 18172 M^−1 cm^−1, the concentration of stock substrate is corrected, and the substrate stock stored in small aliquots in −80° C. [Substrate Stock]=ABS^354 nm*10^6/18172 ([…]) The extinction coefficient ε^354 nm was adapted from TACE peptide substrate, which had the same quencher-fluorophore pair. • Determination of Stock Enzyme Concentration: the stock concentration of each enzyme is determined by absorbance at 280 nm using ε of 64150 M^−1 cm^−1 for hBACE1 and MuBACE1, 62870 M^−1 cm^−1 for hBACE2 in 6 M Guanidinium Hydrochloride (from Research Organics, Cat. # 5134G-2), pH ˜6. The extinction Coefficient ε^280 nm for each enzyme was calculated based on known amino acid composition and published extinction coefficients for Trp ([…]) and Tyr ([…]) residues (Anal. Biochem. 182, 319-326). • Dilution and mixing steps: total reaction volume: 100 μL
2× inhibitor dilutions in buffer A (66.7 mM Na-Acetate, pH 4.5, 0.0667% CHAPS) were prepared,
4× enzyme dilution in buffer A (66.7 mM Na-Acetate, pH 4.5, 0.0667% CHAPS) were prepared,
100 μM substrate dilution in 1×PBS was prepared, and […]

human BACE1, sequence (P56817 46-501): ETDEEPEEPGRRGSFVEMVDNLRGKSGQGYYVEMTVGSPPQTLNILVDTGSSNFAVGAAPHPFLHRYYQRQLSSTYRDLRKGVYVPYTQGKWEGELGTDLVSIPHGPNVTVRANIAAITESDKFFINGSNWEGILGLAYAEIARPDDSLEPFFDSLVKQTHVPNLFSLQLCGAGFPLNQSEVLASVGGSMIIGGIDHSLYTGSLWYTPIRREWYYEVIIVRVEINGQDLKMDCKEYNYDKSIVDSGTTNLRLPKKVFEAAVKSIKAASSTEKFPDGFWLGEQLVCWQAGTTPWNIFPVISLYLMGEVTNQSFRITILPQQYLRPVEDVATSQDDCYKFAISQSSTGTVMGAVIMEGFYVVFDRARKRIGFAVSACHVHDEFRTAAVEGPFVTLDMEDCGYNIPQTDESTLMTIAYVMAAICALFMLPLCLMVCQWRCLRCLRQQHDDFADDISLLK

Structure (SMILES) | IC50 (human BACE1) [µM] | melting point [°C]
N=C(N)NC(=O)Cc1c(-c2ccccc2)cccc1-c1ccccc1.O=C(O)C(F)(F)F [Example 1, N-(1,1′:3′,1″-Terphenyl-2′-ylacetyl)guanidine TFA salt] | 15 | 64 to 67
CC(C)(C)c1ccc(-c2cccc(-c3ccccc3)c2CC(=O)NC(=N)N)cc1 [Example 3, N-[(4-tert-Butyl-1,1′:3′,1″-terphenyl-2′-yl)acetyl]guanidine] | 13.9 | 171 to 174
N=C(N)NC(=O)Cc1c(-c2ccccc2)cccc1-c1ccc2ccccc2c1 [Example 2, N-{[3-(2-Naphthyl)-1,1′-biphenyl-2-yl]acetyl}guanidine] | 29.6 | 36.8 to 36.9
NC(N)=NC(=O)Cc1c(-c2ccccc2)cccc1-c1ccc(Oc2ccccc2)cc1 [Example 4, N″-[(4-Phenoxy-1,1′:3′,1″-terphenyl-2′-yl)acetyl]guanidine] | 5.95 | –
